The values below come from paper PMC5450539, “Anti-Inflammatory Activity and Structure-Activity Relationships of Brominated Indoles from a Marine Mollusc” (Marine Drugs, 2017).

Data set [1] deals with nitric oxide (NO) production. Briefly: NO inhibition assay (Greiss) in LPS-stimulated RAW264.7 macrophages. The class given is cell-based, mouse. The note with it: for reduction of NO production: 50 µg/mL (maximum test concentration), relative to DMSO control; for IC50: Mus musculus. The protocol:
RAW264.7 macrophages were incubated 1 h with extracts/compounds prior to the addition of LPS. […] Then, 20 h after the addition of LPS, the supernatant was collected. […] The plates were incubated for 15–20 min in the dark, then read at 550 nm wavelength on an Anthos Zenyth 200rt (Anthos Labtec Instruments). Sodium nitrite was used to prepare a standard curve to quantify the nitrite from the absorbance readings in this assay. All data were processed in Microsoft Office Excel 2013 (MS) first to obtain descriptive statistics. One-way Analysis of Variance (ANOVA) followed by Dunnett’s multiple comparisons test was performed using GraphPad Prism version 6.00 for Windows (GraphPad Software, La Jolla, CA, USA, www.graphpad.com), with p < 0.05 considered significant.

Data set [2] can be described thus: in vitro. The note with it: mouse. On the procedure: (§1) All extract/compounds were dissolved in DMSO and tested at 5 different concentrations of 50, 10, 2, 0.4, and 0.08 μg/mL for all anti-inflammatory assays unless otherwise noted. The final concentration of DMSO was 0.35% v/v for extracts and compounds. All samples were tested in triplicate at each concentration and each assay was independently repeated at least 3 times. The concentrations used for the cytotoxicity assays were 50, 25, 12.5, 6.25. and 3.125 μg/mL.
(§2) To check for cytotoxicity of the extracts and compounds against RAW264.7 mouse macrophage and 3T3 ccl-92 mouse fibroblast cell lines, the crystal violet cytotoxicity test was used according to the published protocol. In brief, RAW264.7 cells were seeded with a density of 2 × 10^4 cells/well in a 96-well plate and then incubated for 18–24 h. The following day the compounds/extracts were added and then incubated for 24 h before the media was aspirated and the cells washed twice in a gentle stream of water. After removing the water, 50 µL of 0.5% crystal violet staining solution were added and the cells were incubated for 20 min at room temperature. The plate was then washed 4 times with water and air dried for 2 h. Finally, 200 μL of methanol was added to each well and incubated for 20 min at room temperature on a rocker. This was followed by measuring the optical density at 570 nm with a plate reader Anthos Zenyth 200rt (Anthos Labtec Instruments, Heerhugowaard, The Netherlands). Chlorambucil was used as a positive control.

Data set [3] can be described thus: Crystal violet cytotoxicity assay, 3T3 ccl-92. The class given is cell-based, mouse. As to conditions: mouse, 3T3 ccl-92 fibroblast cells; 3T3, 50 µg/mL, 24 h incubation, compared to DMSO-treated wells. On the procedure: as §1, §2
Data set [4] has as its system 3T3 ccl-92 mouse fibroblast. Put plainly: Crystal violet cytotoxicity assay, 3T3 ccl-92. The class given is cell-based. The note with it: 24 h incubation; max test concentration 50 µg/mL; > = <50% reduction in viability at max. The protocol:
as §1, §2

Data set [5] relates to TNFα production. Briefly: TNF-alpha inhibition assay (ELISA) in LPS-stimulated RAW264.7 macrophages. The class given is cell-based, mouse. As to conditions: for IC50: Mus musculus. On the procedure:
The amount of TNFα was quantified in cell culture media using murine TNFα ELISA kits (BD bioscience). In brief, the RAW264.7 mouse macrophages (6 × 10^5 cells/mL) were stimulated with LPS (100 ng/mL) 1 h after treatment with several concentrations of extracts (0.08–50 μg/mL). After 18 h, the supernatant was collected and TNFα production was measured by reading the absorbance at 450 nm wavelength on an Anthos Zenyth 200rt microplate reader (Anthos Labtech Instruments). Dexamethasone at a concentration of 2.5 μM was used as a positive control, with a negative control of 0.35% DMSO.
All data were processed in Microsoft Office Excel 2013 (MS) first to obtain descriptive statistics. One-way Analysis of Variance (ANOVA) followed by Dunnett’s multiple comparisons test was performed using GraphPad Prism version 6.00 for Windows (GraphPad Software, La Jolla, CA, USA, www.graphpad.com), with p < 0.05 considered significant. The inhibitory concentration responsible for a 50% reduction in cell viability or production of inflammatory markers (IC50) was calculated using the regression analysis, Probit in SPSS v21.
A general note: ELISA stands for enzyme-linked immunosorbent assay.

For data set [6], the system named is NO production. More on the design: method as in Matheus et al. [37]. As to conditions: LPS and interferon-γ induced, RAW264.7; ref Matheus et al. [37]; cited from earlier work.
Data set [7] relates to TNFα. The arrangement: method as in Matheus et al. [37]. The note with it: minimum effective dose not established; ref Matheus et al. [37]; cited from earlier work.
In data set [8] the test system is NFκB translocation. Briefly: Assessment of NFκB translocation in LPS-stimulated RAW264.7. The data set is classed as cell-based. The note with it: Mus musculus, RAW264.7, 40 µg/mL, LPS-stimulated RAW264.7, relative to DMSO + LPS. On the procedure: This assay was performed according to the published protocol in Olivera et al.. RAW264.7 mouse macrophages were seeded at 400,000 cells/well in 800 μL in 4-well chambered slides and incubated overnight. The cells were then incubated with the test samples (40 μg/mL HBG extract, 6-bromoisatin, or 6-bromoindole) for 1 h prior to stimulation with LPS (700 ng/mL) for 30 min. After stimulation, the cells were washed with PBS and fixed with 3.7% paraformaldehyde for 15 min. […] The cells were washed with PBS and incubated with rabbit anti-p65 NFκB antibody (1:500) and goat anti-mouse IκB (1:500) overnight at 4 °C. The following day, the cells were washed again three times with PBS and incubated for 1 h with goat-anti-rabbit IgG conjugated with Alexa Fluor 594 (1:1000) and donkey anti-mouse IgG conjugated with Alexa fluor 488 (1:1000) at room temperature. Finally, the cells were washed with PBS then mounted with Prolong mounting media containing DAPI before visualising using the Olympus Flouview FVi10 confocal microscope (Olympus, Tokyo, Japan). Using ImageJ (v1.50i, National Institutes of Health, Bethesda, MD, USA), an outline was drawn around each nucleus by adjusting the colour threshold of DAPI. Mean fluorescence inside the nucleus was measured, along with several adjacent background readings. The total corrected cellular fluorescence (TCCF) was calculated by applying the equation TCCF = integrated density − (area of selected cell × mean fluorescence of background readings). This TCCF was then used to calculate the %inhibition of the NFκB translocation against the positive control where the cells were treated with LPS in the presence of the Vehicle (0.35% DMSO v/v) in Microsoft Office Excel 2013 (Redmond, WA, USA).

The mark [9] stands for this setting: RAW264.7, LPS-stimulated RAW264.7, max test concentration 50 µg/mL, read-out: NO IC50.

SMILES strings stand for the structures. Values joined by “and” are separate entries in the source; they are usually repeats but may differ in a detail not shown here. Equal values may be shown once. Read-outs that look alike come from different tables or passages of the source.

Consider `O=C1Nc2c(Br)cccc2C1=O` [7-bromoisatin], for which the “reduction of NO production” value in data set [1] is reported as “less than 5%”. In addition, the half-maximal inhibitory concentration (IC50) in data set [1] (setting [9]) is greater than 50 µg/mL. Also, the viability at 24 h, 50 µg/mL was 81.9% in data set [2] and 80.9% in data set [3]. Besides, in data set [4], the “Cytotoxicity 3T3 ccl-92 (test concentration which causes toxicity)” value was greater than 221.21 µM.
Turning to `O=C1Nc2ccccc2C1=O` [isatin], in data set [5], the “lowest concentration with significant inhibition of TNFα” value amounted to 0.5 µM. Besides, the IC50 is greater than 340 µM in data set [5] (RAW264.7, LPS-stimulated RAW264.7, max test concentration 50 µg/mL, read-out: TNFα IC50); greater than 50 µg/mL in data set [5] (RAW264.7, LPS-stimulated RAW264.7, read-out: TNFα IC50); 717 µM in data set [5] (RAW264.7, predicted, above the maximum test concentration, read-out: predicted TNFα IC50); roughly 340 µM in data set [1] (setting [9]); 63.3 µg/mL and 430 µM in data set [1] (RAW264.7, predicted, above maximum test concentration 50 μg/mL, read-out: predicted NO IC50). For the same compound, in data set [6], the “concentrations significantly inhibiting NO production” value is 10 to 100 µM. The “concentration at which TNFα was inhibited” value in data set [7] is 100 µM. Moreover, the “reduction of NO production” value in data set [1] is on record as 34%. Moreover, the inhibition at 40 µg/mL in data set [8] amounted to 45.7%. Further, in data set [4], the “Cytotoxicity 3T3 ccl-92 (test concentration which causes toxicity)” value is on record as “NA (not active at maximum test concentration 50 µg/mL)”.

The IC50 is the concentration that gives 50% inhibition. By viability is commonly meant the share of living cells, or the viability signal relative to a control. A lower viability goes with a greater loss of cells. A word on the inhibition: it is how much of the control response was suppressed.
